{"source": "patent US20100092539A1", "about": "“Fluorinated GHRH Antagonists” (priority 2008, published 2010)", "test_system": "PC-3 human hormone-independent prostate cancer", "assay": "Effect of treatment with GH-RH antagonists on PC-3 human prostate cancer xenografts in nude mice", "format": "in vivo", "details": "PC-3 xenografts s.c. in male nude mice, 2 ug/day s.c., single daily injections for 28", "method": "Male nude mice were implanted s.c. with 3 mm3 pieces of PC-3 human hormone-independent prostate cancer tissue on both flanks. When tumors reached a volume of approximately 50 mm3, the mice were divided into 14 experimental groups with 8 to 10 animals in each group and received single daily injections for 28 as follows: 1. Control (vehicle solution); 2. P-12211 (2 μg/day s.c.); 3. P-12307 (2 μg/day s.c.); 4. P-12317 (2 μg/day s.c.); 5. P-12408 (2 μg/day s.c.); 6. P-12409 (2 μg/day s.c.); 7. P-12457 (2 μg/day s.c.); 8. P-12473 (2 μg/day s.c.); 9. P-12479 (2 μg/day s.c.); 10. P-12600 (2 μg/day s.c.); 11. P-12601 (2 μg/day s.c.); 12. P-12602 (2 μg/day s.c.); 13. P-12603 (2 μg/day s.c.); and 14. P-12610 (2 μg/day s.c.).\nEffect of Treatment with GH-RH Antagonists on PC-3 Human Prostate Cancer Xenografts in Nude Mice", "data": [{"substance": "[PhAc^0-Tyr^1, D-Arg^2, Cpa^6, Ala^8, Har^9, Fpa5^10, His^11, Orn^12, Abu^15, His^20, Orn^21, Nle^27, D-Arg^28, Har^29, Ada^30]hGH-RH(1-30)NH2 [Peptide P-12610]", "values": [{"measurement": "Tumor Growth after 4 weeks (%)", "setting": "control 2137.62", "result": 474.98, "unit": "%"}, {"measurement": "Tumor growth inhibition after 4 weeks (%)", "setting": "versus control", "result": 77.78, "unit": "%"}]}]}
